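How tested: cells in 96-well plates exposed to compound for 48 hours at five concentrations. GI50 is the concentration that inhibits growth by half. TGI is the concentration that stops growth completely.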
Tests used:
Assay in all cases: NCI anticancer screen, dose series, 48 h
HS 578T breast = tested on: HS 578T breast
NCI-H460 lung = tested on: NCI-H460 lung
MDA-MB-468 breast = tested on: MDA-MB-468 breast
ACHN renal = tested on: ACHN renal
U251 CNS = tested on: U251 CNS
COLO 205 colon = tested on: COLO 205 colon
HT29 colon = tested on: HT29 colon
MCF7 breast = tested on: MCF7 breast
BT-549 breast = tested on: BT-549 breast
A498 renal = tested on: A498 renal
T-47D breast = tested on: T-47D breast
SN12C renal = tested on: SN12C renal
PC-3 prostate = tested on: PC-3 prostate
UACC-62 melanoma = tested on: UACC-62 melanoma
TK-10 renal = tested on: TK-10 renal
SK-OV-3 ovarian = tested on: SK-OV-3 ovarian
NCI/ADR-RES ovarian = tested on: NCI/ADR-RES ovarian
IGROV1 ovarian = tested on: IGROV1 ovarian
UACC-257 melanoma = tested on: UACC-257 melanoma
CAKI-1 renal = tested on: CAKI-1 renal
786-0 renal = tested on: 786-0 renal
NCI-H226 lung = tested on: NCI-H226 lung
RPMI-8226 leukemia = tested on: RPMI-8226 leukemia
MDA-MB-231 breast = tested on: MDA-MB-231 breast
UO-31 renal = tested on: UO-31 renal
DU-145 prostate = tested on: DU-145 prostate
SF-295 CNS = tested on: SF-295 CNS
M14 melanoma = tested on: M14 melanoma
HCT-15 colon = tested on: HCT-15 colon
HL-60(TB) leukemia = tested on: HL-60(TB) leukemia
CCRF-CEM leukemia = tested on: CCRF-CEM leukemia
SK-MEL-5 melanoma = tested on: SK-MEL-5 melanoma
SF-268 CNS = tested on: SF-268 CNS
MDA-MB-435 = tested on: MDA-MB-435
K-562 leukemia = tested on: K-562 leukemia
HOP-92 NSCLC = tested on: HOP-92 NSCLC
OVCAR-4 ovarian = tested on: OVCAR-4 ovarian
SK-MEL-2 melanoma = tested on: SK-MEL-2 melanoma
MOLT-4 leukemia = tested on: MOLT-4 leukemia
EKVX NSCLC = tested on: EKVX NSCLC
OVCAR-8 ovarian = tested on: OVCAR-8 ovarian
SW-620 colon = tested on: SW-620 colon
MALME-3M melanoma = tested on: MALME-3M melanoma
OVCAR-3 ovarian = tested on: OVCAR-3 ovarian
SNB-19 CNS = tested on: SNB-19 CNS
HCT-116 colon = tested on: HCT-116 colon
OVCAR-5 ovarian = tested on: OVCAR-5 ovarian
NCI-H522 lung = tested on: NCI-H522 lung
SF-539 CNS = tested on: SF-539 CNS
SK-MEL-28 melanoma = tested on: SK-MEL-28 melanoma
NCI-H23 lung = tested on: NCI-H23 lung
HCC-2998 colon = tested on: HCC-2998 colon
A549 NSCLC = tested on: A549 NSCLC
LOX IMVI melanoma = tested on: LOX IMVI melanoma
RXF 393 renal = tested on: RXF 393 renal
HOP-62 NSCLC = tested on: HOP-62 NSCLC
SNB-75 CNS = tested on: SNB-75 CNS
KM12 colon = tested on: KM12 colon

CN(C)CCCNC(=O)c1cc(NC(=O)c2cc(NC(=O)c3ccc(C#Cc4ccccc4)cc3)cn2C)cn1C
GI50 (HS 578T breast): 3.7 µM
TGI (HS 578T breast): 10 µM
GI50 (NCI-H460 lung): 2.76 µM
TGI (NCI-H460 lung): 6.04 µM
GI50 (MDA-MB-468 breast): 2.34 µM
TGI (MDA-MB-468 breast): 4.43 µM
GI50 (ACHN renal): 2.74 µM
TGI (ACHN renal): 6 µM
GI50 (U251 CNS): 2.45 µM
TGI (U251 CNS): 5.93 µM
GI50 (COLO 205 colon): 3.17 µM
TGI (COLO 205 colon): 5.82 µM
GI50 (HT29 colon): 2.56 µM
TGI (HT29 colon): 6.64 µM
GI50 (MCF7 breast): 0.58 µM
TGI (MCF7 breast): 2.38 µM
GI50 (BT-549 breast): 1.79 µM
TGI (BT-549 breast): 3.94 µM
GI50 (A498 renal): 3 µM
TGI (A498 renal): 8.96 µM
GI50 (T-47D breast): 2.07 µM
TGI (T-47D breast): 4.94 µM
GI50 (SN12C renal): 2.03 µM
TGI (SN12C renal): 4.09 µM
GI50 (PC-3 prostate): 2.4 µM
TGI (PC-3 prostate): 5.38 µM
GI50 (UACC-62 melanoma): 1.93 µM
TGI (UACC-62 melanoma): 4.07 µM
GI50 (TK-10 renal): 3.33 µM
TGI (TK-10 renal): 9.03 µM
GI50 (SK-OV-3 ovarian): 5.58 µM
TGI (SK-OV-3 ovarian): > 15.3 µM
GI50 (NCI/ADR-RES ovarian): 2.85 µM
TGI (NCI/ADR-RES ovarian): 7.02 µM
GI50 (IGROV1 ovarian): 4.95 µM
TGI (IGROV1 ovarian): > 15.3 µM
GI50 (UACC-257 melanoma): 2.12 µM
TGI (UACC-257 melanoma): 4.77 µM
GI50 (CAKI-1 renal): 2.85 µM
TGI (CAKI-1 renal): 7.97 µM
GI50 (786-0 renal): 2.65 µM
TGI (786-0 renal): 4.9 µM
GI50 (NCI-H226 lung): 2.28 µM
TGI (NCI-H226 lung): 4.79 µM
GI50 (RPMI-8226 leukemia): 1.76 µM
TGI (RPMI-8226 leukemia): 5.89 µM
GI50 (MDA-MB-231 breast): 2.84 µM
TGI (MDA-MB-231 breast): 5.03 µM
GI50 (UO-31 renal): 3.08 µM
TGI (UO-31 renal): 12.2 µM
GI50 (DU-145 prostate): 2.55 µM
TGI (DU-145 prostate): 5.18 µM
GI50 (SF-295 CNS): 2.53 µM
TGI (SF-295 CNS): 4.97 µM
GI50 (M14 melanoma): 2.26 µM
TGI (M14 melanoma): 4.54 µM
GI50 (HCT-15 colon): 2.23 µM
TGI (HCT-15 colon): 4.48 µM
GI50 (HL-60(TB) leukemia): 2.62 µM
TGI (HL-60(TB) leukemia): 7.14 µM
GI50 (CCRF-CEM leukemia): 1.66 µM
TGI (CCRF-CEM leukemia): 6.46 µM
GI50 (SK-MEL-5 melanoma): 2.34 µM
TGI (SK-MEL-5 melanoma): 4.37 µM
GI50 (SF-268 CNS): 2.56 µM
TGI (SF-268 CNS): 5.65 µM
GI50 (MDA-MB-435): 2.21 µM
TGI (MDA-MB-435): 4.39 µM
GI50 (K-562 leukemia): 2.74 µM
TGI (K-562 leukemia): 7.99 µM
GI50 (HOP-92 NSCLC): 0.611 µM
TGI (HOP-92 NSCLC): 3.47 µM
GI50 (OVCAR-4 ovarian): 4.21 µM
TGI (OVCAR-4 ovarian): > 15.3 µM
GI50 (SK-MEL-2 melanoma): 2.91 µM
TGI (SK-MEL-2 melanoma): 5.98 µM
GI50 (MOLT-4 leukemia): 2.4 µM
TGI (MOLT-4 leukemia): 7.24 µM
GI50 (EKVX NSCLC): 2.49 µM
TGI (EKVX NSCLC): 5.18 µM
GI50 (OVCAR-8 ovarian): 2.57 µM
TGI (OVCAR-8 ovarian): 6.63 µM
GI50 (SW-620 colon): 2.87 µM
TGI (SW-620 colon): 6.02 µM
GI50 (MALME-3M melanoma): 2.11 µM
TGI (MALME-3M melanoma): 4.22 µM
GI50 (OVCAR-3 ovarian): 1.83 µM
TGI (OVCAR-3 ovarian): 4.13 µM
GI50 (SNB-19 CNS): 2.84 µM
TGI (SNB-19 CNS): 5.01 µM
GI50 (HCT-116 colon): 2.1 µM
TGI (HCT-116 colon): 4.46 µM
GI50 (OVCAR-5 ovarian): 3.17 µM
TGI (OVCAR-5 ovarian): 7.43 µM
GI50 (NCI-H522 lung): 2.56 µM
TGI (NCI-H522 lung): 5.16 µM
GI50 (SF-539 CNS): 2.48 µM
TGI (SF-539 CNS): 4.7 µM
GI50 (SK-MEL-28 melanoma): 2.4 µM
TGI (SK-MEL-28 melanoma): 4.47 µM
GI50 (NCI-H23 lung): 2.76 µM
TGI (NCI-H23 lung): 5.37 µM
GI50 (HCC-2998 colon): 2.34 µM
TGI (HCC-2998 colon): 4.42 µM
GI50 (A549 NSCLC): 2.56 µM
TGI (A549 NSCLC): 5.38 µM
GI50 (LOX IMVI melanoma): 2.24 µM
TGI (LOX IMVI melanoma): 4.31 µM
GI50 (RXF 393 renal): 1.61 µM
TGI (RXF 393 renal): 3.84 µM
GI50 (HOP-62 NSCLC): 2.85 µM
TGI (HOP-62 NSCLC): 5.42 µM
GI50 (SNB-75 CNS): 2.48 µM
TGI (SNB-75 CNS): > 15.3 µM
GI50 (KM12 colon): 2.93 µM
TGI (KM12 colon): 6.81 µM

Source: PubChem BioAssay (NCI)
